Experiments:
[1] = Hygroscopicity and solid-form stability of paclitaxel crystal forms; type: physicochemical

CC(=O)O[C@H]1C(=O)[C@@]2(C)[C@H]([C@H](OC(=O)c3ccccc3)[C@]3(O)C[C@H](OC(=O)[C@H](O)[C@@H](NC(=O)c4ccccc4)c4ccccc4)C(C)=C1C3(C)C)[C@]1(OC(C)=O)CO[C@@H]1C[C@@H]2O [Form A, Paclitaxel]
conversion of crystal form ([1]; Form A: relative humidity greater than about 90% or aqueous suspensions, Form D: relatively high humidity): converts (as a function of time, temperature, agitation, etc.) to a thermodynamically more stable form | hygroscopicity ([1]; normal laboratory conditions (RH approximately 50-60%; 20-30° C.)): substantially non-hygroscopic | water solubility: highly water insoluble

CC(=O)OC1C(=O)C2(C)C(O)CC3OCC3(OC(C)=O)C2C(OC(=O)c2ccccc2)C2(O)CC(OC(=O)C(O)C(NC(=O)c3ccccc3)c3ccccc3)C(C)=C1C2(C)C.O.O.O (stereo not shown) [Form B]
water solubility: even less water soluble than Form A

Reference: patent US6858644B2, “Paclitaxel solvates” (Bristol-Myers Squibb Co., priority 2001, dated 2005)
